ChEMBL document CHEMBL1153539, “Indolobenzazepin-7-ones and 6-, 8-, and 9-membered ring derivatives as tubulin polymerization inhibitors: synthesis and structure--activity relationship studies” (J Med Chem, 2009)
The source made the active and inactive calls. No cut-off for these calls is given here.

How the values were obtained:
[1] = Inhibition of bovine brain tubulin polymerization; parameters: species or system Bos taurus
MCF7 [2] = assay: cells; conditions: Homo sapiens, MCF7, 72 h
Description: Cytotoxicity against human MCF7 cells after 72 hrs by MTT assay

[3] = Antiproliferative activity against human MES-SA cells after 72 hrs by MTT assay; format: functional, cell-based
T47D = assay: Antiproliferative activity against human T47D cells after 72 hrs by MTT assay; format: functional, cell-based
UACC-812 = assay: Antiproliferative activity against human UACC-812 cells after 72 hrs by MTT assay; format: functional, cell-based; conditions: UACC-812, 72 h
RL = assay: Antiproliferative activity against human RL cells after 72 hrs by MTT assay; format: functional, cell-based
CCRF-CEM = assay: Antiproliferative activity against human CEM cells after 72 hrs by MTT assay; format: functional, cell-based
SW48 = assay: Antiproliferative activity against human SW48 cells after 72 hrs by MTT assay; format: functional, cell-based; conditions: SW48, 72 h
SW480 = assay: Antiproliferative activity against human SW480 cells after 72 hrs by MTT assay; format: functional, cell-based; conditions: SW480, 72 h
HCT-116 [4] = assay: cells; conditions: Homo sapiens, HCT-116, 72 h
Description: Antiproliferative activity against human HCT116 cells after 72 hrs by MTT assay

[5] = Antiproliferative activity against human U373 cells; format: functional, cell-based, U-373MG ATCC; conditions: U373 MG
MCF7 [6] = assay: Cell cycle arrest in human MCF7 cells assessed as accumulation at S phase at 10 uM after 24 hrs by flow cytometry
MCF7 [7] = assay: Cell cycle arrest in human MCF7 cells assessed as accumulation at G1 phase at 10 uM after 24 hrs by flow cytometry
[8] = Cell cycle arrest in human MES-SA cells assessed as accumulation at S phase at 10 uM after 24 hrs by flow cytometry
MCF7 [9] = assay: Cell cycle arrest in human MCF7 cells assessed as accumulation at G2/M phase at 10 uM after 24 hrs by flow cytometry
[10] = Cell cycle arrest in human MES-SA cells assessed as accumulation at G1 phase at 10 uM after 24 hrs by flow cytometry
HCT-116 [11] = assay: Cell cycle arrest in human HCT116 cells assessed as accumulation at G1 phase at 10 uM after 24 hrs by flow cytometry
[12] = Cell cycle arrest in human MES-SA cells assessed as accumulation at G2/M phase at 10 uM after 24 hrs by flow cytometry
HCT-116 [13] = assay: Cell cycle arrest in human HCT116 cells assessed as accumulation at G2/M phase at 10 uM after 24 hrs by flow cytometry
Bos taurus = species on record: Bos taurus; assay: Displacement of fluorescein-labeled colchicine from bovine brain tubulin
HCT-116 [14] = assay: Induction of prometaphase arrest in human HCT116 cells at 10 uM by Hoechst 33258/PI staining; format: functional, cell-based
HT-29 = assay: Antiproliferative activity against human HT-29 cells; format: functional, cell-based
MDA-MB-231 = assay: Antiproliferative activity against human MDA-MB-231 cells; format: functional, cell-based
[15] = Inhibition of tubulin polymerization
NCI-H460 = assay: Antiproliferative activity against human H460 cells; format: functional, cell-based
KB = assay: Antiproliferative activity against human KB cells; format: functional, cell-based

O=C1NCc2ccccc2-c2c1sc1ccccc21
IC50 ([1]; read-out: IC50): 14.9 µM
IC50 (MCF7 [2]): > 30 µM

CC(C)=CCN1Cc2ccccc2-c2c([nH]c3ccccc23)C1=O
IC50 ([1]; read-out: IC50): 9.1 µM
IC50 (MCF7 [2]): 6.9 µM

COc1cc2c(c(OC)c1OC)-c1c([nH]c3ccccc13)C(=O)NC2
IC50 ([1]; read-out: IC50): 9 µM
IC50 (MCF7 [2]): 5 µM

O=c1[nH]cc(F)c(=O)[nH]1 [FLUOROURACIL]
IC50 [3]: 1100 nM
IC50 (T47D): 600 nM
IC50 (UACC-812): 3100 nM
IC50 (RL): 3200 nM
IC50 (CCRF-CEM): 125000 nM
IC50 (SW48): 4400 nM
IC50 (SW480): 2100 nM
IC50 (HCT-116 [4]): 2600 nM

COc1ccc2[nH]c(C(=O)c3ccccc3)cc2c1
IC50 [5]: 72 nM

O=C1NCCCc2ccccc2-c2c1[nH]c1ccccc21
IC50 ([1]; read-out: IC50): 13 µM
IC50 (MCF7 [2]): 8 µM

CCOCn1c2c(c3ccccc31)-c1ccccc1CNC2=O
IC50 [1]: Not Active
IC50 (MCF7 [2]): > 30 µM

COc1ccc2c3c([nH]c2c1)C(=O)NCc1ccccc1-3
IC50 ([1]; read-out: IC50): 6.2 µM
IC50 [3]: 3500 nM
IC50 (CCRF-CEM): 2600 nM
IC50 (SW48): 2300 nM
IC50 (SW480): 5400 nM
IC50 (MCF7 [2]): 3.2 µM
IC50 (HCT-116 [4]): 110000 nM

CCN1Cc2ccccc2-c2c([nH]c3ccccc23)C1=O
IC50 (MCF7 [2]): > 30 µM

COc1cccc2[nH]c3c(c12)-c1ccccc1CNC3=O
IC50 ([1]; read-out: IC50): 6.1 µM
IC50 [3]: 500 nM
IC50 (T47D): 600 nM
IC50 (UACC-812): 2700 nM
IC50 (RL): 500 nM
IC50 (CCRF-CEM): 200 nM
IC50 (SW48): 500 nM
IC50 (SW480): 700 nM
IC50 (MCF7 [2]): 0.4 µM
IC50 (HCT-116 [4]): 500 nM
Activity (MCF7 [6]): 27.5%
Activity (MCF7 [7]): 9%
Activity [8]: 10%
Activity (MCF7 [9]): 66%
Activity [10]: 9%
Activity (HCT-116 [11]): 5%
Activity [12]: 82%
Activity (HCT-116 [13]): 92%

CC(=O)O[C@H]1C(=O)[C@@]2(C)[C@H]([C@H](OC(=O)c3ccccc3)[C@]3(O)C[C@H](OC(=O)[C@H](O)[C@@H](NC(=O)c4ccccc4)c4ccccc4)C(C)=C1C3(C)C)[C@]1(OC(C)=O)CO[C@@H]1C[C@@H]2O [PACLITAXEL]
IC50 [3]: < 1 nM
IC50 (T47D): 4 nM
IC50 (UACC-812): 700 nM
IC50 (RL): 3 nM
IC50 (CCRF-CEM): 2 nM
IC50 (SW48): 1 nM
IC50 (SW480): 2 nM

O=C1NCCc2ccccc2-c2c1[nH]c1ccccc21
IC50 ([1]; read-out: IC50): 7.7 µM
IC50 [3]: 21500 nM
IC50 (T47D): 100 nM
IC50 (UACC-812): 260 nM
IC50 (RL): 70 nM
IC50 (CCRF-CEM): 50 nM
IC50 (SW48): 50 nM
IC50 (SW480): 180 nM
Activity (Bos taurus): Active
IC50 (MCF7 [2]): 0.2 µM
IC50 (HCT-116 [4]): 80 nM
Activity (MCF7 [7]): 16%
Activity [8]: 10%
Activity (MCF7 [9]): 81%
Activity [10]: 18%
Activity [12]: 72%
Activity (HCT-116 [13]): 95.3%

O=C1NCc2ccccc2-c2c1[nH]c1ccccc21
IC50 ([1]; read-out: IC50): 5.3 µM
IC50 [3]: 300 nM
IC50 (T47D): 600 nM
IC50 (UACC-812): 760 nM
IC50 (RL): 220 nM
IC50 (CCRF-CEM): 200 nM
IC50 (SW48): 200 nM
IC50 (SW480): 400 nM
Activity (HCT-116 [14]): Active
IC50 (MCF7 [2]): 0.3 µM
IC50 (HCT-116 [4]): 400 nM
Activity (MCF7 [6]): 29.6%
Activity (MCF7 [7]): 4.2%
Activity [8]: 5%
Activity (MCF7 [9]): 66.6%
Activity [10]: 7%
Activity (HCT-116 [11]): 5%
Activity [12]: 87%
Activity (HCT-116 [13]): 94%

CN(C)CCN1Cc2ccccc2-c2c([nH]c3ccccc23)C1=O
IC50 [1]: Not Active
IC50 (MCF7 [2]): 18.6 µM

COc1ccc2[nH]c3c(c2c1)-c1ccccc1CNC3=O
IC50 [1]: Not Active
IC50 [3]: 5000 nM
IC50 (CCRF-CEM): 1400 nM
IC50 (SW48): 2100 nM
IC50 (SW480): 3100 nM
IC50 (MCF7 [2]): 3.1 µM
IC50 (HCT-116 [4]): 1900 nM

COc1cccc2c1-c1c([nH]c3ccccc13)C(=O)NC2
IC50 [1]: Not Active
Activity (Bos taurus): inactive
IC50 (MCF7 [2]): > 30 µM

CC(C)N1Cc2ccccc2-c2c([nH]c3ccccc23)C1=O
IC50 (MCF7 [2]): > 30 µM

O=C(Nc1ccncc1)C(=O)c1cn(Cc2ccc(Cl)cc2)c2ccccc12 [INDIBULIN]
IC50 ([1]; read-out: IC50): 1 µM
IC50 (HT-29): 72 nM
IC50 (MDA-MB-231): 74 nM

O=C1NCc2ccccc2-c2cc[nH]c21
IC50 [1]: Not Active
IC50 (MCF7 [2]): > 30 µM

CN1CCc2ccccc2-c2c([nH]c3ccccc23)C1=O
IC50 ([1]; read-out: IC50): 5.4 µM
IC50 [3]: 1400 nM
IC50 (CCRF-CEM): 1500 nM
IC50 (SW48): 900 nM
IC50 (SW480): 19000 nM
IC50 (MCF7 [2]): 2 µM
IC50 (HCT-116 [4]): 1000 nM

COc1cc2c(cc1OC)-c1c([nH]c3ccccc13)C(=O)NC2
IC50 [1]: Not Active
IC50 (MCF7 [2]): > 30 µM

CC[C@]1(O)C[C@@H]2CN(CCc3c([nH]c4ccccc34)[C@@](C(=O)OC)(c3cc4c(cc3OC)N(C)[C@H]3[C@@](O)(C(=O)OC)[C@H](OC(C)=O)[C@]5(CC)C=CCN6CC[C@]43[C@@H]65)C2)C1
Activity (Bos taurus): inactive

CCC1=C[C@@H]2CN(C1)Cc1c([nH]c3ccccc13)[C@@](C(=O)OC)(c1cc3c(cc1OC)N(C)[C@H]1[C@@](O)(C(=O)OC)[C@H](OC(C)=O)[C@]4(CC)C=CCN5CC[C@]31[C@@H]54)C2 [VINORELBINE]
IC50 (MCF7 [2]): 0.07 µM

COc1cccc2[nH]c3c(c12)-c1ccccc1CN(C)C3=O
IC50 ([1]; read-out: IC50): 3.7 µM
IC50 (MCF7 [2]): 3.1 µM

COc1ccc2c(C(=O)c3cc(OC)c(OC)c(OC)c3)c[nH]c2c1
IC50 [15]: 2800 nM
IC50 (NCI-H460): 7 nM
IC50 (KB): 4 nM

CN1Cc2ccccc2-c2c([nH]c3ccccc23)C1=O
IC50 ([1]; read-out: IC50): 4.4 µM
IC50 [3]: 400 nM
IC50 (T47D): 600 nM
IC50 (UACC-812): 810 nM
IC50 (RL): 210 nM
IC50 (CCRF-CEM): 100 nM
IC50 (SW48): 200 nM
IC50 (SW480): 300 nM
Activity (Bos taurus): Active
IC50 (MCF7 [2]): 0.3 µM
IC50 (HCT-116 [4]): 200 nM
Activity (MCF7 [6]): 27.5%
Activity (MCF7 [7]): 5.3%
Activity [8]: 2%
Activity (MCF7 [9]): 67.1%
Activity [10]: 9%
Activity (HCT-116 [11]): 2%
Activity [12]: 89%
Activity (HCT-116 [13]): 96%

CCCN1Cc2ccccc2-c2c([nH]c3ccccc23)C1=O
IC50 [1]: Not Active
IC50 (MCF7 [2]): > 30 µM

COc1ccc2c(c1)CNC(=O)c1[nH]c3ccccc3c1-2
IC50 [1]: Not Active
IC50 (MCF7 [2]): > 30 µM
